Experimental data taken from patent US20260022142A1, “MACROCYCLIC IMMUNOMODULATORS” (Bristol-Myers Squibb Company, priority 2022, published 2026).
Bridge positions count the residues as written; N and C are the ends. Square brackets hold non-standard residues; d marks the D form. Peptide text beside a SMILES is read from it. * marks the point of attachment. ξ: configuration not given here. Phe(4-COOH) = N[C@@H](Cc1ccc(C(=O)O)cc1)C(=O)O; Bip = N[C@@H](Cc1ccc(-c2ccccc2)cc1)C(=O)O; NH(CH2)14COOH = O=C(O)CCCCCCCCCCCCCCN*; hArg = N=C(N)NCCCC[C@H](N)C(=O)O; 4Pal = N[C@@H](Cc1ccncc1)C(=O)O; Cha = N[C@@H](CC1CCCCC1)C(=O)O; Thr(3ξ) = CC(O)[C@H](N)C(=O)O; Carboxymethyl = O=C(O)C*; Orn = NCCC[C@H](N)C(=O)O; Aun = NCCCCCCCCCCC(=O)O; Dab = NCC[C@H](N)C(=O)O; AEEA = NCCOCCOCC(=O)O

Molecular target: T1, PD-1/PD-L1 interaction (PE-labeled human PD-L1-Ig binding to Jurkat cell line over-expressing human PD-1) (Homo sapiens, UniProt Q15116)
T1 construct: expressed in transfected cells; host or cells: Jurkat
Assay: Jurkat-PD-1 Cell Binding High-Content Screening Assay (CBA)
Assay type: cell-based
Conditions: Jurkat cell line over-expressing human PD-1; PE-labeled PD-L1-Ig 20 nM final; read-out: Jurkat hPD1-PDL1 IC50
Summary of the method: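 Jurkat-hPD-1 cells, DMEM/10% FCS; cpd 2 h 37° C; PE-PD-L1-Ig 20 nM final, 1 h; 4% PFA fix + Hoechst 33342, 3× dPBS wash; high-content imaging read-out.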

T1 sequence (Q15116 25-288): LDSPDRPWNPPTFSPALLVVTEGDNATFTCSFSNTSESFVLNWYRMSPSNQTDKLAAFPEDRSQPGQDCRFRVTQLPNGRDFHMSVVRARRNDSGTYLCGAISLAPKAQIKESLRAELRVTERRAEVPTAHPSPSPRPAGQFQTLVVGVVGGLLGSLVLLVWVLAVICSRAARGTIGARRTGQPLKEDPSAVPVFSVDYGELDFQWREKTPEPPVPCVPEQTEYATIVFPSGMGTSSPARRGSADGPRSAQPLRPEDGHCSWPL

IC50 [µM]	Structure (SMILES)
0.01	CC(C)C[C@H]1NC(=O)[C@H](CCCN)NC(=O)[C@H](C(C)C)NC(=O)[C@H](Cc2ccc(-c3ccccc3)cc2)NC(=O)[C@H](C(C)C)NC(=O)[C@H](Cc2c[nH]c3ccccc23)NC(=O)[C@H](CC(=O)O)NC(=O)[C@H](Cc2ccc(OCC(=O)O)cc2)NC(=O)[C@H](CCCCNC(=N)N)NC(=O)CSC[C@@H](C(=O)N[C@@H](CC(N)=O)C(=O)NCCOCCOCC(=O)N[C@@H](CCCCN)C(=O)NCCCCCCCCCCC(=O)O)NC(=O)[C@H](C(C)O)NC(=O)[C@H](C(C)C)NC(=O)[C@H](CC2CCCCC2)NC(=O)[C@H](CCN)NC1=O (stereo partly drawn) [Compound 3026] ({CH2CO}-[hArg]Y(Carboxymethyl)DWV[Bip]V[Orn][dL][Dab][Cha]V[Thr(3ξ)]CN[AEEA]K[Aun]-OH; thioether N-14)
0.0095	CC(C)C[C@H]1NC(=O)[C@H](CCCN)NC(=O)[C@H](C(C)C)NC(=O)[C@H](Cc2ccc(-c3ccccc3)cc2)NC(=O)[C@H](C(C)C)NC(=O)[C@H](Cc2c[nH]c3ccccc23)NC(=O)[C@H](CC(=O)O)NC(=O)[C@H](Cc2ccc(OCC(=O)O)cc2)NC(=O)[C@H](C(C)O)NC(=O)CSC[C@@H](C(=O)N[C@@H](CC(N)=O)C(=O)NCCOCCOCC(=O)N[C@@H](CCCCN)C(=O)NCCCCCCCCCCC(=O)O)NC(=O)[C@H](C(C)O)NC(=O)[C@H](C(C)C)NC(=O)[C@H](CC2CCCCC2)NC(=O)[C@H](CCN)NC1=O (stereo partly drawn) [Compound 3027] ({CH2CO}-[Thr(3ξ)]Y(Carboxymethyl)DWV[Bip]V[Orn][dL][Dab][Cha]V[Thr(3ξ)]CN[AEEA]K[Aun]-OH; thioether N-14)
0.0164	CC(C)C[C@H]1NC(=O)[C@H](CCCN)NC(=O)[C@H](C(C)C)NC(=O)[C@H](Cc2ccc(-c3ccccc3)cc2)NC(=O)[C@H](C(C)C)NC(=O)[C@H](Cc2c[nH]c3ccccc23)NC(=O)[C@H](CC(=O)O)NC(=O)[C@H](Cc2ccc(OCC(=O)O)cc2)NC(=O)[C@H](CCCCNC(=N)N)NC(=O)CSC[C@@H](C(=O)N[C@@H](C)C(=O)NCCOCCOCC(=O)N[C@@H](CCN)C(=O)NCCCCCCCCCCC(=O)O)NC(=O)[C@H](C(C)O)NC(=O)[C@H](C(C)C)NC(=O)[C@H](CC2CCCCC2)NC(=O)[C@H](CCN)NC1=O (stereo partly drawn) [Compound 3028] ({CH2CO}-[hArg]Y(Carboxymethyl)DWV[Bip]V[Orn][dL][Dab][Cha]V[Thr(3ξ)]CA[AEEA][Dab][Aun]-OH; thioether N-14)
0.0079	CC(C)C[C@H]1NC(=O)[C@H](CCCN)NC(=O)[C@H](C(C)C)NC(=O)[C@H](Cc2ccc(-c3ccccc3)cc2)NC(=O)[C@H](C(C)C)NC(=O)[C@H](Cc2c[nH]c3ccccc23)NC(=O)[C@H](CC(=O)O)NC(=O)[C@H](Cc2ccc(OCC(=O)O)cc2)NC(=O)[C@H](C(C)O)NC(=O)CSC[C@@H](C(=O)N[C@@H](C)C(=O)NCCOCCOCC(=O)N[C@@H](CCN)C(=O)NCCCCCCCCCCC(=O)O)NC(=O)[C@H](C(C)O)NC(=O)[C@H](C(C)C)NC(=O)[C@H](CC2CCCCC2)NC(=O)[C@H](CCN)NC1=O (stereo partly drawn) [Compound 3029] ({CH2CO}-[Thr(3ξ)]Y(Carboxymethyl)DWV[Bip]V[Orn][dL][Dab][Cha]V[Thr(3ξ)]CA[AEEA][Dab][Aun]-OH; thioether N-14)
0.0121	CC(C)C[C@H]1NC(=O)[C@H](CCCN)NC(=O)[C@H](C(C)C)NC(=O)[C@H](Cc2ccc(-c3ccccc3)cc2)NC(=O)[C@H](C(C)C)NC(=O)[C@H](Cc2c[nH]c3ccccc23)NC(=O)[C@H](CC(=O)O)NC(=O)[C@H](Cc2ccc(OCC(=O)O)cc2)NC(=O)[C@H](CCCCNC(=N)N)NC(=O)CSC[C@@H](C(=O)N[C@@H](CC(N)=O)C(=O)NCCOCCOCC(=O)N[C@@H](CCCN)C(=O)NCCCCCCCCCCC(=O)O)NC(=O)[C@H](C(C)O)NC(=O)[C@H](C(C)C)NC(=O)[C@H](CC2CCCCC2)NC(=O)[C@H](CCN)NC1=O (stereo partly drawn) [Compound 3030] ({CH2CO}-[hArg]Y(Carboxymethyl)DWV[Bip]V[Orn][dL][Dab][Cha]V[Thr(3ξ)]CN[AEEA][Orn][Aun]-OH; thioether N-14)
0.0034	CC(C)C[C@H]1NC(=O)[C@H](CCCN)NC(=O)[C@H](C(C)C)NC(=O)[C@H](Cc2ccc(-c3ccccc3)cc2)NC(=O)[C@H](C(C)C)NC(=O)[C@H](Cc2c[nH]c3ccccc23)NC(=O)[C@H](CC(=O)O)NC(=O)[C@H](Cc2ccc(OCC(=O)O)cc2)NC(=O)[C@H](C(C)O)NC(=O)CSC[C@@H](C(=O)N[C@@H](CC(N)=O)C(=O)NCCOCCOCC(=O)N[C@@H](CCCN)C(=O)NCCCCCCCCCCC(=O)O)NC(=O)[C@H](C(C)O)NC(=O)[C@H](C(C)C)NC(=O)[C@H](CC2CCCCC2)NC(=O)[C@H](CCN)NC1=O (stereo partly drawn) [Compound 3031] ({CH2CO}-[Thr(3ξ)]Y(Carboxymethyl)DWV[Bip]V[Orn][dL][Dab][Cha]V[Thr(3ξ)]CN[AEEA][Orn][Aun]-OH; thioether N-14)

Second part, the molecule before the results:

Structure (SMILES)	IC50 [µM]
CC(C)C[C@H]1NC(=O)[C@H](CCCN)NC(=O)[C@H](C(C)C)NC(=O)[C@H](Cc2ccc(-c3ccccc3)cc2)NC(=O)[C@H](C(C)C)NC(=O)[C@H](Cc2c[nH]c3ccccc23)NC(=O)[C@H](CC(=O)O)NC(=O)[C@H](Cc2ccc(C(=O)O)cc2)NC(=O)[C@H](C(C)O)NC(=O)CSC[C@@H](C(=O)N[C@@H](C)C(=O)NCCOCCOCC(=O)N[C@@H](CCN)C(=O)NCCCCCCCCCCC(=O)O)NC(=O)[C@H](C(C)O)NC(=O)[C@H](C(C)C)NC(=O)[C@H](CC2CCCCC2)NC(=O)[C@H](CCN)NC1=O (stereo partly drawn) [Compound 3022] ({CH2CO}-[Thr(3ξ)][Phe(4-COOH)]DWV[Bip]V[Orn][dL][Dab][Cha]V[Thr(3ξ)]CA[AEEA][Dab][Aun]-OH; thioether N-14)	0.0073
CC(C)C[C@@H]1NC(=O)[C@H](Cc2c[nH]c3ccccc23)NC(=O)[C@H](CC(=O)O)NC(=O)[C@H](Cc2ccc(C(=O)O)cc2)NC(=O)[C@H](C(C)O)NC(=O)CSC[C@@H](C(=O)N[C@@H](CC(N)=O)C(=O)N[C@@H](CCN)C(=O)NCCCCCCCCCCCCCCC(=O)O)NC(=O)[C@H](CO)NC(=O)[C@H](C(C)C)NC(=O)[C@H](CC2CCCCC2)NC(=O)[C@H](CCN)NC(=O)[C@@H](CC(C)C)NC(=O)[C@H](CCCN)NC(=O)[C@H](C(C)C)NC(=O)[C@H](Cc2ccc(-c3ccccc3)cc2)NC1=O (stereo partly drawn) [Compound 3023] ({CH2CO}-[Thr(3ξ)][Phe(4-COOH)]DWL[Bip]V[Orn][dL][Dab][Cha]VSCN[Dab]-{NH(CH2)14COOH}; thioether N-14)	0.184
CC(C)C[C@@H]1NC(=O)[C@H](Cc2c[nH]c3ccccc23)NC(=O)[C@H](CC(=O)O)NC(=O)[C@H](Cc2ccc(C(=O)O)cc2)NC(=O)[C@H](C(C)O)NC(=O)CSC[C@@H](C(=O)N[C@@H](C)C(=O)N[C@@H](CCN)C(=O)NCCCCCCCCCCCCCCC(=O)O)NC(=O)[C@H](CO)NC(=O)[C@H](C(C)C)NC(=O)[C@H](CC2CCCCC2)NC(=O)[C@H](Cc2c[nH]cn2)NC(=O)[C@@H](CC(C)C)NC(=O)[C@H](CCCN)NC(=O)[C@H](C(C)C)NC(=O)[C@H](Cc2ccc(-c3ccccc3)cc2)NC1=O (stereo partly drawn) [Compound 3024] ({CH2CO}-[Thr(3ξ)][Phe(4-COOH)]DWL[Bip]V[Orn][dL]H[Cha]VSCA[Dab]-{NH(CH2)14COOH}; thioether N-14)	0.891
CC(C)C[C@H]1NC(=O)[C@H](CCCN)NC(=O)[C@H](CCC(=O)O)NC(=O)[C@H](Cc2ccc(-c3ccccc3)cc2)NC(=O)[C@H](C(C)C)NC(=O)[C@H](Cc2c[nH]c3ccccc23)NC(=O)[C@H](CC(=O)O)NC(=O)[C@H](Cc2ccncc2)NC(=O)[C@H](C(C)O)NC(=O)CSC[C@@H](C(=O)N[C@@H](C)C(=O)NCCOCCOCC(=O)N[C@@H](CCCCN)C(=O)NCCCCCCCCCCCCCCC(=O)O)NC(=O)[C@H](CO)NC(=O)[C@H](C(C)C)NC(=O)[C@H](CC2CCCCC2)NC(=O)[C@H](CCN)NC1=O (stereo partly drawn) [Compound 3025] ({CH2CO}-[Thr(3ξ)][4Pal]DWV[Bip]E[Orn][dL][Dab][Cha]VSCA[AEEA]K-{NH(CH2)14COOH}; thioether N-14)	0.0805
CC(C)C[C@H]1NC(=O)[C@H](CCCN)NC(=O)[C@H](C(C)C)NC(=O)[C@H](Cc2ccc(-c3ccccc3)cc2)NC(=O)[C@H](C(C)C)NC(=O)[C@H](Cc2c[nH]c3ccccc23)NC(=O)[C@H](CC(=O)O)NC(=O)[C@H](Cc2ccc(OCC(=O)O)cc2)NC(=O)[C@H](CCCCNC(=N)N)NC(=O)CSC[C@@H](C(=O)N[C@@H](C)C(=O)NCCOCCOCC(=O)N[C@@H](CCCN)C(=O)NCCCCCCCCCCC(=O)O)NC(=O)[C@H](C(C)O)NC(=O)[C@H](C(C)C)NC(=O)[C@H](CC2CCCCC2)NC(=O)[C@H](Cc2c[nH]cn2)NC1=O (stereo partly drawn) [Compound 3032] ({CH2CO}-[hArg]Y(Carboxymethyl)DWV[Bip]V[Orn][dL]H[Cha]V[Thr(3ξ)]CA[AEEA][Orn][Aun]-OH; thioether N-14)	0.0265
CC(C)C[C@H]1NC(=O)[C@H](CCCN)NC(=O)[C@H](C(C)C)NC(=O)[C@H](Cc2ccc(-c3ccccc3)cc2)NC(=O)[C@H](C(C)C)NC(=O)[C@H](Cc2c[nH]c3ccccc23)NC(=O)[C@H](CC(=O)O)NC(=O)[C@H](Cc2ccc(OCC(=O)O)cc2)NC(=O)[C@H](C(C)O)NC(=O)CSC[C@@H](C(=O)N[C@@H](C)C(=O)NCCOCCOCC(=O)N[C@@H](CCCN)C(=O)NCCCCCCCCCCC(=O)O)NC(=O)[C@H](C(C)O)NC(=O)[C@H](C(C)C)NC(=O)[C@H](CC2CCCCC2)NC(=O)[C@H](Cc2c[nH]cn2)NC1=O (stereo partly drawn) [Compound 3033] ({CH2CO}-[Thr(3ξ)]Y(Carboxymethyl)DWV[Bip]V[Orn][dL]H[Cha]V[Thr(3ξ)]CA[AEEA][Orn][Aun]-OH; thioether N-14)	0.0113
CC(C)C[C@H]1NC(=O)[C@H](CCCN)NC(=O)[C@H](CCC(=O)O)NC(=O)[C@H](Cc2ccc(-c3ccccc3)cc2)NC(=O)[C@H](C(C)C)NC(=O)[C@H](Cc2c[nH]c3ccccc23)NC(=O)[C@H](CC(=O)O)NC(=O)[C@H](Cc2ccncc2)NC(=O)[C@H](CCCCNC(=N)N)NC(=O)CSC[C@@H](C(=O)N[C@@H](C)C(=O)NCCOCCOCC(=O)N[C@@H](CCCCN)C(=O)NCCCCCCCCCCCCCCC(=O)O)NC(=O)[C@H](CO)NC(=O)[C@H](C(C)C)NC(=O)[C@H](CC2CCCCC2)NC(=O)[C@H](CCN)NC1=O [Compound 3034] ({CH2CO}-[hArg][4Pal]DWV[Bip]E[Orn][dL][Dab][Cha]VSCA[AEEA]K-{NH(CH2)14COOH}; thioether N-14)	0.109
